Assays:
HLA-A24 = HLA-A24 binding assay (MFI shift on T2-A24 cells); set-up: species or system human; conditions: for binding to HLA-A24: T2-A24 cells, MFI shift
Experimental: T2-A24 cells, which are HLA-A24-expressing T2 cells, were preincubated in a CO2 incubator at 27° C. overnight. The cells collected were resuspended in Opti-MEM and plated on a round bottom 96 well plate (Corning) with about 1×10^5 cells/200 μL per well. A subject peptide was added at concentrations of 0.33 μM, […], and 10 μM, and incubation was carried out in a CO2 incubator at 27° C. for 3 hours and subsequently at 37° C. for 2.5 hours. Subsequently, the cells were subjected to centrifugation (380 g, 5 minutes) as they were on the plate, resuspended in 100 μL of a C7709A2 monoclonal antibody-producing hybridoma culture supernatant, and incubated on ice for 45 to 60 minutes. The cells were washed with ice-cooled PBS and then incubated together with an FITC-conjugated goat anti-mouse IgG antibody (KPL, Gaithersburg, MD) on ice for 30 minutes. The cells were washed with ice-cooled PBS as they were on the plate, then resuspended in 1% formaldehyde and PBS, and analyzed by a FACScan (BD Biosciences, Mountain View, CA), and the mean fluorescence intensity (MFI) shift (fluorescence increase as a result of stabilization by binding peptide) due to an increase in the amount of stable HLA-A24 molecules was thus measured. A cell treated with nonbinding peptide GK12 (concentration 0 to 10 μM) has a constant MFI and it was used as a negative control.
The MFI shift (AMFI) for a peptide concentration of 1 μM was measured for 26 types of randomly selected peptides of the natural peptides obtained in Example 1 above. A score was also calculated for these peptides using NetMHC3.4, and correlation with ΔMFI was investigated.

human PBMC = assay: CTL induction from PBMC by peptide stimulation; format: cell-based; conditions: peptide 10 μg/mL, PBMC of HLA-A24-positive healthy controls, method of Example 5 (1)
Experimental: Peripheral blood was collected using a heparin-containing 50 ML syringe from HLA-A24-positive healthy controls who had given informed consent. The whole blood was layered in a 50 mL tube (Falcon) to which 13 mL of Lymphoprep (Nycomed) had been added, and subjected to centrifugation at 2000 rpm for 30 minutes. A PBMC layer precipitated on the Lymphoprep layer was recovered using a pipette and washed three times with PBS, thus giving human PBMC.
About 3×10^7 cells/plate of the human PBMC separated above and 10 mL of Hepes-modified RPMI1640 medium (Sigma) containing 2-mercaptoethanol (final concentration 55 μM), L-glutamine (final concentration 2 mM), as antibiotics streptomycin (final concentration 100 μg/mL) and penicillin G (final concentration 100 U/mL), and 5% serum component were placed in each well of a […] for cell culture (BECTON DIKINSON), and suspension cultured. PVT1-derived natural antigen peptide of SEQ ID No: 1 (hereinafter referred to as ‘HF10’) or SUV39H2-derived natural antigen peptide of SEQ ID No: 2 (hereinafter referred to as ‘RF8’) were added thereto at a concentration of 10 μg/mL. After culturing was carried out for 2 days, IL-2 was added at a final concentration of 50 U/mL, and culturing was carried out for a further 2 weeks. […]

Substance	MFI of T2-A24 cells treated with peptide (HLA-A24; concentration 0 to 10 μM, negative control peptide)	binding to HLA-A24 (HLA-A24)	CTL induction (human PBMC)
GK12: synthetic nonbinding peptide used as negative control for HLA-A24 binding (GYISPYFINTSK) [reference compound]	constant MFI	–	–
HWNDTRPAHF [SEQ ID No: 1, PVT1-derived natural antigen peptide]	–	high binding	A plurality of CTL clones were induced
IFQGNVHNF [SEQ ID No: 4, SNRNP40-derived natural peptide]	–	high binding	–
KYVKDFHKF [SEQ ID No: 3, ZNF724P-derived natural peptide]	–	high binding	–
RYGNVSHF [SEQ ID No: 2, SUV39H2-derived natural antigen peptide]	–	high binding	A plurality of CTL clones were induced
VYTYIQSRF [SEQ ID No: 5, DYRK4-derived natural peptide]	–	high binding	–

Reference: patent US12637500B2, “Tumor antigen peptide” (Niigata University, priority 2015, dated 2026)
